Molecules are shown by their SMILES.

What all share (type): in vivo, mouse
In assay [1] the test system is GAA-KO mice. Put plainly: GAA activity in tissues, gene therapy plus clenbuterol. Here is the method:
(§1) FIG. 5A-5B depicts enhanced efficacy from liver-targeted gene therapy plus clenbuterol treatment. The GAA-KO mice were injected with AAV-LSPhGAA (2×10^10 vector particles/mouse) or uninjected (5 per group). Vector-treated mice were treated with AAV-LSPhGAA and clenbuterol or with AAV-LSPhGAA alone. Untreated (mock) GAA-KO mice were used as controls. Mice were euthanized for tissue analysis 4 weeks after vector injection. […] Statistically significant differences indicated (*=p<0.05; **=p<0.01).
For in vivo analysis of AAV vectors, stocks were administered intravenously (via the retroorbital sinus) in 3 month-old and 15 month-old GAA-KO mice, and to 3 month-old tolerant GAA-KO and DKO mice. Clenbuterol (30 μg/ml) was administered to groups of 3 month-old vector-injected and mock-injected male GAA-KO mice in drinking water for 28 days. At the indicated time points post-injection, tissue samples were obtained and processed as described below. All animal procedures were done in accordance with Duke University Institutional Animal Care and Use Committee-approved guidelines. GAA activity and glycogen content were analyzed essentially as described (Sun et al., Mol. Ther., 2005, 11:889-898; Sun et al., Mol. Ther., 2005, 11: 57-65). Rotarod testing was performed essentially as described (Sun, B. D. et al. 2005). […]

Assay [2] deals with GAA-KO mice. Put plainly: Glycogen content in tissues, gene therapy plus clenbuterol. The following applies: vector plus clenbuterol v. vector alone. Here is the method:
as §1
For in vivo analysis of AAV vectors, stocks were administered intravenously (via the retroorbital sinus) in 3 month-old and 15 month-old GAA-KO mice, and to 3 month-old tolerant GAA-KO and DKO mice. Clenbuterol (30 μg/ml) was administered to groups of 3 month-old vector-injected and mock-injected male GAA-KO mice in drinking water for 28 days. At the indicated time points post-injection, tissue samples were obtained and processed as described below. All animal procedures were done in accordance with Duke University Institutional Animal Care and Use Committee-approved guidelines. GAA activity and glycogen content were analyzed essentially as described (Sun et al., Mol. Ther., 2005, 11:889-898; Sun et al., Mol. Ther., 2005, 11: 57-65). Rotarod testing was performed essentially as described (Sun, B. D. et al. 2005). Western blotting of hGAA was performed essentially as described (Amalfitano et al., Proc. Natl. Acad. Sci. USA, 1999, 96: 8861-8866) using the hGAA monoclonal antibody (courtesy of Genzyme Corp., Framingham, Mass.) and the CI-MPR antibody (catalog number GTX28093; Gene Tex, Irvine, Calif.).
Based upon the implication that CI-MPR expression was crucial to both uptake and intracellular processing of GAA in Pompe disease, levels of CI-MPR in GAA-KO mice were manipulated. A related but distinct strategy for addressing the apparently limiting role of CI-MPR expression in achieving efficacy with ERT in Pompe disease involved enhancement of rhGAA glycosylation (Raben et al., Mol. Genet. Metab., 2003, 80: 159-169; Raben et al., Transgenic Res., 2003, 12: 171-178; McVie-Wylie et al., Mol. Genet. Metab., 2008, 94: 448-455). […] The vector-transduced liver depot was enhanced by the addition of a drug, clenbuterol, which increases the expression of CI-MPR in muscle (Matsumoto et al., Arch. Oral Biol., 2006 51:603-611). The liver was transduced by administering AAV-LSPhGAA (2×10^10 vector particles) to groups of 3 month-old male GAA-KO mice, and clenbuterol (30 μg/ml) was administered to groups of 3 month-old vector-injected and mock-injected male GAA-KO mice in drinking water.

Assay [3] concerns immune tolerant GAA-KO mice. Put plainly: Weight of gastrocnemius, ERT plus β2 agonist. The following applies: clenbuterol plus ERT v. ERT alone or albuterol plus ERT. Here is the method:
GAA-KO mice were administered four weekly doses of rhGAA (20 mg/kg), and treated with medium dose clenbuterol (n=7), albuterol (n=4) or untreated (n=6 or 3). […] Mean+/−standard deviation are shown. P values indicate statistically significant differences (lines).
Two β2 agonists were evaluated in combination with ERT, clenbuterol and albuterol. The dose of clenbuterol was reduced 5-fold from the concentration used in Example 4, to 6 mg/l in drinking water, while albuterol was evaluated at the higher dose (30 mg/l in drinking water). Groups of 3 month-old immune tolerant GAA-KO mice (Raben et al., Human Mol. Genet., 2001, 10:2039-2047) were treated with four weekly doses of rhGAA (20 mg/kg body weight), with or without concurrent β2 agonist treatment.
Mice were sacrificed 7 days after the last injection. Selected tissues were collected for GAA enzyme activity and glycogen content analyses. […] GAA activity and glycogen content analyses, Rotarod testing, and Western blot detection of CI-MPR was performed essentially as described (Koeberl et al., Mol. Genet. Metab., 2011, 103:107-112. Wire hang testing was performed with a 0.5 cm mesh hardware cloth fixed to an 8 by 10 inch frame. Mice were placed on the wire mesh, which was slowly inverted 6 inches over a cage containing paper bedding. The latency, or time until the mouse fell into the cage, was recorded.

Assay [4] concerns immune tolerant GAA-KO mice. Put plainly: Histopathology of brain, glycogen staining. The following applies: cerebellum; in comparison with ERT alone. Here is the method: Histopathology was performed to examine brain involvement, and glycogen accumulations were detected in the cerebellum with ERT alone. Albuterol and clenbuterol each reduced the glycogen staining in the cerebellum, in comparison with ERT alone.

Turning to `CC(C)(C)NCC(O)c1cc(Cl)c(N)c(Cl)c1` (stereo not drawn) [clenbuterol], the GAA activity entry in the assay with GAA-KO mice [1] (heart, vector plus clenbuterol v. vector alone, p=0.03) is “significantly increased”; in the assay with GAA-KO mice [1] (skeletal muscles and the brain, clenbuterol administration with vector) it was “significantly increased”. Besides, the Glycogen content result in the assay on GAA-KO mice [2] (EDL, p=0.002) is “reduced”; in the assay with GAA-KO mice [2] (cerebellum, p=0.03) it was “reduced”; in the assay with GAA-KO mice [2] (cerebrum, p<5×10^−5), “reduced”; in the assay with GAA-KO mice [2] (diaphragm, p=0.04), “reduced”; with GAA-KO mice [2] (soleus, p=0.0006), “reduced”. Moreover, the “weight of the gastrocnemius” value in assay [3] is on record as “increased”. Also, the “glycogen staining (histopathology)” value in assay [4] is “reduced”.

The values are drawn from patent publication US8679478B2, “Methods of lysosomal storage disease therapy” (Duke University, priority 2010, dated 2014).
